Data from US20040097467A1 (priority 2002, published 2004).
Like-named read-outs stand apart in the source and are kept apart here. Marks after values point to notes of the source that are not given here.

Key:
[1] = tested on: Aortic Rings of Male JCR: LA-cp Rats; experiment: Contractile response of aortic rings to phenylephrine; assay type: in vivo, rat; settings: for Slope: logistic curve fit, phenylephrine contraction, treated cp/cp rats; for Maximum contraction: phenylephrine, aortic rings from treated cp/cp rats, mean +/− SEM
Text: (§1) The JCR:LA-cp rat is known to spontaneously develop the range of dysfunction and pathophysiology associated with Metabolic Syndrome in humans, e.g., obesity, profound insulin resistance, atherosclerosis with enhanced vascular contractility, and reduced vascular relaxation. In addition, obese male rats spontaneously develop ischemic lesions of the heart and are prone to stress-induced myocardial infarcts that can be fatal. Insulin resistance develops rapidly in young rats between the ages of 4 and 7 weeks and is highly correlated with the cardiovascular disease. […] Consistent with this observation is the presence of glomerular sclerosis in the older rats.
(§2) Male JCR: LA-cp rats are maintained on a reversed light cycle at 3 or 7 weeks of age and acclimatized over a 1-week period. This allows metabolic studies to be conducted under subdued light, during the active (dark) phase of their diurnal cycle.
(§3) The rats are divided into four groups and receive one of the three aforementioned feed concentrations or unsupplemented feed. The dosage is maintained on either a mg/kg body weight basis, in which case the diet is formulated on a weekly basis to ensure each rat receives the intended dose on a mg/kg basis, or the specified concentration in the feed. Food consumption and body weights are measured twice weekly.
(§4) At 13 weeks of age, rats in the fed state are sacrificed under anesthesia with halothane in oxygen, and the following tissues are removed for processing as described below:
(§5) 1. Thoracic aorta for vascular function studies;
(§6) The following parameters are measured: Food intake and body weights, ulin response (through a meal tolerance test), plasma total lipid profile, ratio n to creatinine, plasma levels of leptin, C-reactive protein and tumor necrosis TNFα), vascular function studies on aortic rings (contractility/relaxation), levels and activity of peroxisome proliferator-activated receptors (PPARs), osition of plasma cholesterol esters, liver, pancreas, muscle and adipose phatidylinositol-3 (PI-3) Kinase Signaling. Histological analysis are obtained sclerosis; islet morphometry; liver-hepatic damage and lipid content; and al electron microscopy for lipid).

[2] = tested on: Hearts of Male JCR: LA-cp Rats; experiment: Parameters for Langendorf-perfused hearts: coronary flow, reactive hyperemia, bradykinin response; assay type: in vivo, rat; settings: hearts of treated cp/cp rats; mean +/− SEM, 10 rats
Text: Samples were taken from Langendorf-perfused hearts of JCR:LA-cp rats, control and arginine-treated.
as §1, §2, §3, §6

normal rodents = settings: 1% added to normal diet (1.8% L-Arg content); cited from earlier work
[3] = tested on: Aortic Rings of JCR:LA-cp rats; experiment: Relaxant response of aortic rings to acetylcholine; assay type: in vivo, rat; settings: treated cp/cp rats; for Maximum Relaxation: acetylcholine, rings pre-contracted with phenylephrine; for Slope: logistic curve fit, acetylcholine relaxation
Text: as §1, §2, §3, §4, §5, §6

JCR:LA-cp rat = tested on: JCR:LA-cp rat
Text: as §1, §2, §3
At 12 weeks of age, rats fast over the light (non-active) phase. A fasting blood sample is obtained from the tail and a standardized meal tolerance test (MTT) is performed. Following a 2-day recovery period, the rats are placed in a metabolism cage for 24 hours for the collection of urine.
as §4, §6

[4] = human volunteer, 8 g/l solution, three one-cup servings daily for three days, third-day 24-hour urine
rabbits = settings: injection or ingestion; cited from earlier work
postmenopausal women = settings: injection, 50 mg twice weekly, 14 months; cited from earlier work
[5] = tested on: subject at risk for bone loss; settings: 500 mg total per day
overweight subject = settings: 500 mg total per day, after several weeks
ovariectomized rats = settings: oral; cited from earlier work
[6] = treatment begun at 4 weeks of age, at 12 weeks, vs control group

Cl.N=C(N)NCCC[C@H](N)C(=O)O [arginine HCl, reference compound]
Slope [1]: −1.03 +/− 0.14 | Maximum contraction [1]: 1.84 ± 0.07 g | Bradykinin response Maximum response relative flow [2]: 1.48 +/− 0.55 | Coronary flow [2]: 10.5 ± 0.3 mL/min | Reactive hyperemia [2]: 170 +/− 11** % | thymic weight (normal rodents): increased | Maximum Relaxation [3]: 90.4 +/− 3.5% | Slope [3]: −0.673 +/− 0.093

N=C(N)NCCC[C@H](N)C(=O)O.O[Si](O)(O)O [arginine silicate]
level of silica (% SiO2) (aqueous solution 0.5 g/l): 17.5% | level of silica (% SiO2) (aqueous solution 10 g/l, 1 hour): 11.8% | level of silica (% SiO2) (aqueous solution 10 g/l, 2 hours): 10.8% | level of silica (% SiO2) (aqueous solution 10 g/l, 24 hours): 9.2% | level of silica (% SiO2) (aqueous solution 10 g/l, time 0): 17.5% | bradykinin response (FIG. 1) (JCR:LA-cp rat; coronary blood flow, FIG. 1): improved | metabolic syndrome and cardiovascular disease (CVD) symptoms (JCR:LA-cp rat; dietary supplementation, compared to controls): reduced | increases in serum insulin concentration (JCR:LA-cp rat; [6]): reduced | increases in urinary albumin excretion (JCR:LA-cp rat; [6]): reduced | body weight (JCR:LA-cp rat; vs control animals): reduction | coronary risk lipids and lipoprotein concentrations (JCR:LA-cp rat; vs control animals): reduction | endothelial function (JCR:LA-cp rat; vs control animals): improved | gene expression and PPAR (α, γ) activity (JCR:LA-cp rat; vs control animals): enhanced | glomerular sclerosis (JCR:LA-cp rat; vs control animals): decreased | inflammatory markers (JCR:LA-cp rat; vs control animals): decreased levels | insulin resistance (JCR:LA-cp rat; vs control animals): reduction | insulin signaling pathway (JCR:LA-cp rat; vs control animals): enhanced | ischemic lesions (JCR:LA-cp rat; vs control animals): reduced | islet cell hyperplasia (JCR:LA-cp rat; vs control animals): lower levels | sensitivity to insulin (JCR:LA-cp rat; vs control animals): greater | stress induced myocardial infarct (JCR:LA-cp rat; vs control animals): reduced | structural remodeling (e.g., enlargement of the heart) (JCR:LA-cp rat; vs control animals): reduced | tolerance to glucose (JCR:LA-cp rat; vs control animals): greater | vascular contractility (JCR:LA-cp rat; vs control animals): decreased | vascular relaxation (JCR:LA-cp rat; vs control animals): increased | Slope [1]: −1.01 +/− 0.17 | Maximum contraction [1]: 1.44 ± 0.07 g | Bradykinin response Maximum response relative flow [2]: 1.95 +/− 0.40 | Coronary flow [2]: 10.8 ± 0.4 mL/min | Reactive hyperemia [2]: 186 +/− 25.3* % | Maximum Relaxation [3]: 97.1 +/− 4.0% | Slope [3]: −0.729 +/− 0.105 | urinary silicon output vs baseline [4]: increased more than tenfold

NCCCC[C@H](N)C(=O)O.O[Si](O)(O)O [lysine silicate]
intimal thickening and fragmentation of arterial elastic fibers (rabbits): prevented

C[Si](O)(O)O [monomethyltrisilanol]
increase of femoral density (average) (postmenopausal women): 4.7% | intimal thickening and fragmentation of arterial elastic fibers (rabbits): prevented

arginine silicate
bone mineral density ([5]; after several months): optimal level of bone density | serum N-telopeptide of collagen type I and osteocalcin (markers of bone resorption and formation) ([5]; after several weeks): returned to their normal ranges | blood lipid concentrations (cholesterol and triglycerides) (overweight subject): reduced | glucose metabolism (overweight subject): normalized

orthosilicic acid
bone formation rate (ovariectomized rats): increased | bone turnover (ovariectomized rats): slowed
